Tests used:
Format in all cases: cell-based
BaF3_ASV = experiment: Cell growth inhibition assay (CellTiter-Glo), BaF3_ASV; details: 72 h; Table 6; BaF3_ASV cells, three days, CellTiter-Glo; read-out: BaF3_ASV GI50
Experimental: (§1) Cells were seeded in a 96-well plate (Corning 3610) with 90 μL of culture medium per well, and plates were incubated at 37° C. overnight. A 1,000× DMSO stock solution of the desired compound was prepared the following day. A compound dilution plate was prepared by diluting the stock solution 1:100 in the corresponding cell culture medium, 10 μL of the diluted compound solution was added to each 96-well plate well containing the seeded cells. […] The content of the wells was mixed by shaking continuously for 10 min, and luminescence was measured using Envision (PerkinElmer). The data were analyzed with GraphPad Prism 9 (see FIG. 50).
(§2) Table 6, Table 7, and Table 8 list the cell growth inhibition results, where Gls0 represents the compound concentration to cause 50% cell growth inhibition in comparison with DMSO.

BaF3_DTC = experiment: Cell growth inhibition assay (CellTiter-Glo), BaF3_DTC; details: 72 h; Table 6; BaF3_DTC cells, three days, CellTiter-Glo; read-out: BaF3_DTC GI50
Experimental: as §1, §2

A431 (EGFR_WT) = biological target: T1, A431 (EGFR_WT) (Homo sapiens, UniProt P00533); experiment: EGFR degradation assay (western blot), A431 cells; details: compounds 24 h, western blot, read-out: A431 DC50
T1 construct: endogenous in cells; host or cells: A431, NCI-H2073, NCI-H292
T1 sequence (P00533 25-1210): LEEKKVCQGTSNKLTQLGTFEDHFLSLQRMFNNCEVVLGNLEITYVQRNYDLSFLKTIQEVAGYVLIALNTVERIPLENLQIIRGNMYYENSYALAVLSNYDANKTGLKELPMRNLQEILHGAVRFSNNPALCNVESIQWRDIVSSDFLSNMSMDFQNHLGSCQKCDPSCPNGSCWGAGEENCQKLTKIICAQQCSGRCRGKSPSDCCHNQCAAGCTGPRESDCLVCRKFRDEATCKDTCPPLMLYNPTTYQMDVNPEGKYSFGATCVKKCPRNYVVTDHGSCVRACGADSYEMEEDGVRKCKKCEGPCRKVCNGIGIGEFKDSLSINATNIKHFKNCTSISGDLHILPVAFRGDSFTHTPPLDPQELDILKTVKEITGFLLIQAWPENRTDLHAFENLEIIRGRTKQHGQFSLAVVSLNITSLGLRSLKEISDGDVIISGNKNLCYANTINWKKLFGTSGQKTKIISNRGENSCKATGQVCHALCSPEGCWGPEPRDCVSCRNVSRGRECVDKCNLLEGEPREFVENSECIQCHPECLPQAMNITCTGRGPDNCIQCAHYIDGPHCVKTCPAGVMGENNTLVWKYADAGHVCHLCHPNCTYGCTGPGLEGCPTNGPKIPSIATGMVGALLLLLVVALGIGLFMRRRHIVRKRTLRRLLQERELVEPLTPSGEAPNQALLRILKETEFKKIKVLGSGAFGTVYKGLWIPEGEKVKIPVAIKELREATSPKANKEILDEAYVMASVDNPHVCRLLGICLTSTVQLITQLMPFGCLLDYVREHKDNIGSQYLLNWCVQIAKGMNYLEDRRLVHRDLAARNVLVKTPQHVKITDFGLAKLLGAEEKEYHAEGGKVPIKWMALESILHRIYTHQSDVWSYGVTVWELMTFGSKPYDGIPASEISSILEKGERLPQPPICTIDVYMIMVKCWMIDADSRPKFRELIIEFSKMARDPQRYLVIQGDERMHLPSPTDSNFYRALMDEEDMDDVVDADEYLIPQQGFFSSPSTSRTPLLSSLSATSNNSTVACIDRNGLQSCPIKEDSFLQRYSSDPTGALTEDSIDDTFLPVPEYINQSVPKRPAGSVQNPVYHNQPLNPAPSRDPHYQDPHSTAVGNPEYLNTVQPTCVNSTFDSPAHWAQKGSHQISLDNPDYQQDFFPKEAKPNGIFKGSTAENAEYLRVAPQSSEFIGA
Experimental: (§3) A431 (EGFR_WT), NCl-H2073 (EGFR_WT), NCl-H292 (EGFR_WT), BaF3_YVAM (Her2_A775insYVAM), BaF3_SVD (EGFR_D770insSVD), BaF3_ASV (EGFR_A776inASV), or BaF3_DTC (EGFR_Exon19del/T790M/C797S) cells were seeded in a 24-well plate at a density of 4×10^5 cells per well for EGFR WT cells and 8× cells per well for EGFR or Her2 mutant cells, and the plates were incubated overnight. The cells were treated with the desired compounds for 24 h. The culture medium was removed, and 100 μL of RIPA buffer (Beyotime, P0013B) containing 1% Protease Inhibitor Cocktail (Bimake, B14001), 1% Phosphatase Inhibitor Cocktail 2 (Sigma, P5726), and 1% Phosphatase Inhibitor Cocktail 3 (Sigma, P0044) were added to lyse the cells. Then, the cell lysates were transferred to 1.5 mL microcentrifuge tubes and centrifuged at 12,000 rpm and 4° C. for 30 min. The supernatants were transferred into new tubes, and the protein concentration was determined using the BCA protein quantification method. All samples were diluted to the same concentration using RIPA buffer, loading buffer was added, samples were denatured, and 15 μg of protein per lane was loaded onto a SurePAGE 4-20% Bis-Tris gel. Samples were separated via electrophoresis in MOPS running buffer at 180 V for 100 min. Then, proteins were transferred onto PVDF membranes using the MiniBlot™ Electrophoretic Transfer Cell Device (Beyotime, E6050). The membrane was blocked using block buffer (LI-COR 927-60001) to prevent non-specific binding. The membrane was incubated with primary antibodies (1:500 dilution, EGFR-CST4405, 1:2000 dilution, Tubulin-ABclonal #AC021) at 4° C. overnight. The membrane was washed three times with 1× TBST buffer for 15 min each. The membrane was incubated with secondary antibodies IRDye 680RD Goat anti-Rabbit IgG Secondary Antibody (1:2000 dilution, LI-COR 926-68071) and IRDye 800CW Goat anti-Mouse IgG Secondary Antibody (1:2000 dilution, LI-COR 926-32210). Finally, the membrane was washed again with 1× TBST buffer 3 times. Fluorescence was detected using the Odyssey CLx Imaging System, and the data were analyzed with Empiria Studio Software and GraphPad Prism 9. Table 4 and Table 5 list the degradation results, where the degradation potency is represented by DC50, the concentration of compounds to cause the degradation of 50% of the corresponding proteins. FIGS. 45-49 show western blots illustrating the EGFR degradative activity of exemplary Compound of the present disclosure and a comparator Compound A in different cell lines 24 h after administration. The Compound referred herein as Compound A is disclosed in WO 2022/171123 A1 (see, compound 133, page 46; published Aug. 18, 2022). WO 2022/171123 A1 discloses phosphine oxide derived molecules with EGFR degradation activity.

A431 = experiment: Cell growth inhibition assay (CellTiter-Glo), A431; details: Homo sapiens, A-431, 72 h, Table 6; A431 cells, three days, CellTiter-Glo; read-out: A431 GI50
Experimental: as §1, §2

[1] = biological target: T2, BaF3_ASV (EGFR_A776inASV) (Homo sapiens, UniProt P00533, DUP767-769); experiment: EGFR degradation assay (western blot), BaF3_ASV cells; details: BaF3_ASV cells, compounds 24 h, western blot; read-out: BaF3_ASV DC50
T2 construct: expressed in transfected cells; host or cells: Ba/F3 (engineered)
T2 sequence (P00533 with tags, fused parts or gaps DUP767-769): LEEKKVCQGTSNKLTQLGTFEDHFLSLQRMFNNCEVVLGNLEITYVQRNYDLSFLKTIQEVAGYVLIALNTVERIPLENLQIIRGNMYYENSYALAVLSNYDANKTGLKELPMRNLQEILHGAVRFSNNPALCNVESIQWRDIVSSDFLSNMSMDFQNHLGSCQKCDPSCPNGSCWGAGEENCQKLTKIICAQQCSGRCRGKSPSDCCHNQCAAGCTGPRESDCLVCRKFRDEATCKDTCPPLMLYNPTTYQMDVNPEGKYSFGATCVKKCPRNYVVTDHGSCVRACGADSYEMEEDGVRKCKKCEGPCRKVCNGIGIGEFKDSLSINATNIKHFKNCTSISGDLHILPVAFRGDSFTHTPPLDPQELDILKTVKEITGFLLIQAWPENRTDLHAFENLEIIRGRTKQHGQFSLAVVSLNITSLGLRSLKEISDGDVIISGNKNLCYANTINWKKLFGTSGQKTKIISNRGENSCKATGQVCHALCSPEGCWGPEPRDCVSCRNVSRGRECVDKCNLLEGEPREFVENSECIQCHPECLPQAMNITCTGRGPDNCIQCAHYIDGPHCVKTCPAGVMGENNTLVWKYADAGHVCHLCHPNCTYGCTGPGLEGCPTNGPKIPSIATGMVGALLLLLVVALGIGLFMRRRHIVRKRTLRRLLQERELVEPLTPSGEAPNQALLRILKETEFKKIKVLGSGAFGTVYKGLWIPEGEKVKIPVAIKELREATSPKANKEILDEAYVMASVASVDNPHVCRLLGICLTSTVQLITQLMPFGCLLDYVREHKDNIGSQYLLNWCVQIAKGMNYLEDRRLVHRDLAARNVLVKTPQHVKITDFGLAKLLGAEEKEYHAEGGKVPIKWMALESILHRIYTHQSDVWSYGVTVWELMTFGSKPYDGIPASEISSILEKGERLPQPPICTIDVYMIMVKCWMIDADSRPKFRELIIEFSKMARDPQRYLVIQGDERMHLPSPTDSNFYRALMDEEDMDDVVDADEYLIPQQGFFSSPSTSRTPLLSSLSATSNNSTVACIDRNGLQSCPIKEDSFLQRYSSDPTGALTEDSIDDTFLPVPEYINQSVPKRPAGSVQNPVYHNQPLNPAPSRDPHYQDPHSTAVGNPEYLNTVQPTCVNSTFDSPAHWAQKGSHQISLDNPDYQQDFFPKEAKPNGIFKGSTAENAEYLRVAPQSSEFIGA
Experimental: as §3

[2] = tested on: BaF3_DTC (EGFR_Exon19del/T790M/C797S); experiment: EGFR degradation assay (western blot), BaF3_DTC cells; details: BaF3_DTC cells (EGFR_Exon19del/T790M/C797S), compounds 24 h, western blot; read-out: BaF3_DTC DC50
Experimental: as §3

Compound | GI50 (BaF3_ASV) [nM] | GI50 (BaF3_DTC) [nM] | DC50 (A431 (EGFR_WT)) [nM] | GI50 (A431) [nM] | DC50 [1] [nM] | DC50 [2] [nM]
CCc1cc(Nc2ncc(Br)c(Nc3ccc4nccnc4c3NS(C)(=O)=O)n2)c(OC)cc1N1CCC(N2CCN(CC3CCN(c4ccc5c(c4)C(=O)N(C4CCC(=O)NC4=O)C5=O)CC3)CC2)CC1 (stereo not drawn) [Compound 6, N-(6-((5-bromo-2-((4-(4-(4-((1-(2-(2,6-dioxopiperidin-3-yl)-1,3-dioxoisoindolin-5-yl)piperidin-4-yl)methyl)piperazin-1-yl)piperidin-1-yl)-5-ethyl-2-methoxyphenyl)amino)pyrimidin-4-yl)amino)quinoxalin-5-yl)methanesulfonamide] | 282 | 11.2 | > 1000 | > 1000 | 289 | 5.94
CCc1cc(Nc2ncc(Br)c(Nc3ccc4nccnc4c3NS(C)(=O)=O)n2)c(OC)cc1N1CCC(N2CCN(C3CCC4(CC3)CN(c3ccc5c(c3)CN(C3CCC(=O)NC3=O)C5=O)C4)CC2)CC1 (stereo not drawn) [Compound 50, N-(6-((5-bromo-2-((4-(4-(4-(2-(2-(2,6-dioxopiperidin-3-yl)-1-oxoisoindolin-5-yl)-2-azaspiro[3.5]nonan-7-yl)piperazin-1-yl)piperidin-1-yl)-5-ethyl-2-methoxyphenyl)amino)pyrimidin-4-yl)amino)quinoxalin-5-yl)methanesulfonamide] | 106 | 13 | – | > 1000 | 95.2 | 38.5
CCc1cc(Nc2ncc(Br)c(Nc3ccc4nccnc4c3NS(C)(=O)=O)n2)c(OC)cc1N1CCC(N2CCC3(CCN(c4ccc5c(c4)CN(C4CCC(=O)NC4=O)C5=O)CC3)CC2)CC1 (stereo not drawn) [Compound 53, N-(6-((5-bromo-2-((4-(4-(9-(2-(2,6-dioxopiperidin-3-yl)-1-oxoisoindolin-5-yl)-3,9-diazaspiro[5.5]undecan-3-yl)piperidin-1-yl)-5-ethyl-2-methoxyphenyl)amino)pyrimidin-4-yl)amino)quinoxalin-5-yl)methanesulfonamide] | 330 | 22.7 | – | > 1000 | > 1000 | 5.99
CCc1cc(Nc2ncc(Br)c(Nc3ccc4nccnc4c3NS(C)(=O)=O)n2)c(OC)cc1N1CCC(CN2CCC3(CC2)CCN(c2ccc4c(c2)CN(C2CCC(=O)NC2=O)C4=O)CC3)CC1 (stereo not drawn) [Compound 54, N-(6-((5-bromo-2-((4-(4-((9-(2-(2,6-dioxopiperidin-3-yl)-1-oxoisoindolin-5-yl)-3,9-diazaspiro[5.5]undecan-3-yl)methyl)piperidin-1-yl)-5-ethyl-2-methoxyphenyl)amino)pyrimidin-4-yl)amino)quinoxalin-5-yl)methanesulfonamide] | 31 | 4.77 | – | > 1000 | 33.5 | 13.3
CCc1cc(Nc2ncc(Br)c(Nc3ccc4nccnc4c3NS(C)(=O)=O)n2)c(OC)cc1N1CCC(CN2CCC3(CC2)CN(c2ccc4c(c2)CN(C2CCC(=O)NC2=O)C4=O)C3)CC1 (stereo not drawn) [Compound 56, N-(6-((5-bromo-2-((4-(4-((2-(2-(2,6-dioxopiperidin-3-yl)-1~oxoisoindolin-5-yl)-2,7-diazaspiro[3.5]nonan-7-yl)methyl)piperidin-1-yl)-5-ethyl-2-methoxyphenyl)amino)pyrimidin-4-yl)amino)quinoxalin-5-yl)methanesulfonamide] | 37.2 | 6.08 | – | > 1000 | 18 | 9.32
CCc1cc(Nc2ncc(Br)c(Nc3ccc4nccnc4c3NS(C)(=O)=O)n2)c(OC)cc1N1CCC(CN2CC3(CCN(c4ccc5c(c4)CN(C4CCC(=O)NC4=O)C5=O)CC3)C2)CC1 (stereo not drawn) [Compound 58, N-(6-((5-bromo-2-((4-(4-((7-(2-(2,6-dioxopiperidin-3-yl)-1-oxoisoindolin-5-yl)-2,7-diazaspiro[3.5]nonan-2-yl)methyl)piperidin-1-yl)-5-ethyl-2-methoxyphenyl)amino)pyrimidin-4-yl)amino)quinoxalin-5-yl)methanesulfonamide] | 49 | 11.2 | – | > 1000 | 23 | 10.4
CCc1cc(Nc2ncc(Br)c(Nc3ccc4nccnc4c3NS(C)(=O)=O)n2)c(OC)cc1N1CCC(N2CC(CN3CCN(c4ccc5c(c4)CN([C@H]4CCC(=O)NC4=O)C5=O)CC3)C2)CC1 [Compound 62, (S)-N-(6-((5-bromo-2-((4-(4-(3-((4-(2-(2,6-dioxopiperidin-3-yl)-1-oxoisoindolin-5-yl)piperazin-1-yl)methyl)azetidin-1-yl)piperidin-1-yl)-5-ethyl-2-methoxyphenyl)amino)pyrimidin-4-yl)amino)quinoxalin-5-yl)methanesulfonamide] | 130 | 19.3 | – | 383 | 75.2 | 5.18
CCc1cc(Nc2ncc(Br)c(Nc3ccc4nccnc4c3NS(C)(=O)=O)n2)c(OC)cc1N1CCC(N2CC(N3CCN(c4ccc5c(c4)CN([C@H]4CCC(=O)NC4=O)C5=O)CC3)C2)CC1 [Compound 63, (S)-N-(6-((5-bromo-2-((4-(4-(3-(4-(2-(2,6-dioxopiperidin-3-yl)-1-oxoisoindolin-5-yl)piperazin-1-yl)azetidin-1-yl)piperidin-1-yl)-5-ethyl-2-methoxyphenyl)amino)pyrimidin-4-yl)amino)quinoxalin-5-yl)methanesulfonamide] | 40.8 | 6.23 | – | > 1000 | 18.2 | 12.9
CCc1cc(Nc2ncc(Br)c(Nc3ccc4nccnc4c3NS(C)(=O)=O)n2)c(OC)cc1N1CCC(N2CCN(CCC3CCN(c4cc(F)c(C5CCC(=O)NC5=O)c(F)c4)CC3)CC2)CC1 (stereo not drawn) [Compound 90, N-(6-((5-bromo-2-((4-(4-(4-(2-(1-(4-(2,6-dioxopiperidin-3-yl)-3,5-difluorophenyl)piperidin-4-yl)ethyl)piperazin-1-yl)piperidin-1-yl)-5-ethyl-2-methoxyphenyl)amino)pyrimidin-4-yl)amino)quinoxalin-5-yl)methanesulfonamide] | 89.4 | 19.1 | – | > 1000 | 135 | 38.6
CCc1cc(Nc2ncc(Br)c(Nc3ccc4nccnc4c3NS(C)(=O)=O)n2)c(OC)cc1N1CCC(N2CCN(CCNc3cccc4c3CN(C3CCC(=O)NC3=O)C4=O)CC2)CC1 (stereo not drawn) [Compound 91, N-(6-((5-bromo-2-((4-(4-(4-(2-((2-(2,6-dioxopiperidin-3-yl)-1-oxoisoindolin-4-yl)amino)ethyl)piperazin-1-yl)piperidin-1-yl)-5-ethyl-2-methoxyphenyl)amino)pyrimidin-4-yl)amino)quinoxalin-5-yl)methanesulfonamide] | 48.6 | 9.26 | – | 448 | 53.7 | 8.04

— patent US20250002473A1, “QUINOXALINE DERIVED SULFONAMIDES WITH EGFR DEGRADATION ACTIVITIES AND THEIR USES THEREOF” (Accutar Biotechnology Inc., priority 2023, published 2025)
